System: Mycobacterium tuberculosis
Experiment: Antimycobacterial activity against wild type Mycobacterium bovis BCG after 21 days
Format: functional, organism-based
Conditions: variant bovis BCG

For CC(=O)O[C@@H]1C=C2C(=O)O[C@@H](O)[C@]2(O)[C@@]2(C)CCCC(C)(C)[C@H]12, the Activity was “Dose-dependent effect”.
